# Measured values as given in ChEMBL document CHEMBL1909294, “Translating clinical findings into knowledge in drug safety evaluation--drug induced liver injury prediction system (DILIps)” (PLoS Comput Biol, 2011).
# What was measured:
# Hepatotoxicity [1] = tested on: Hepatotoxicity;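 on HepSE cholelithiasis: hepatic side effect score for cholelithiasis, drawn from the DILIps training data for predicting drug-induced liver injury; call rule not given here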;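 on HepSE cirrhosis: cirrhosis hepatic side effect score taken from the DILIps (drug-induced liver injury prediction) training set; call rule not given here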;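 on HepSE elevated liver function tests: hepatic side effect score for raised liver function tests, as recorded in the DILIps training set used for predicting drug-induced liver injury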; on HepSE hepatic failure: call rule not given here;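 on HepSE hepatitis: Hepatitis-related hepatic side effect score taken from the training data of DILIps, a prediction system for drug-induced liver injury; call rule not given here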;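 on HepSE jaundice: Jaundice-related hepatic side-effect score drawn from the training data of the DILIps (drug-induced liver injury prediction system); call rule not given here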;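 on HepSE liver function tests abnormal: hepatic side effect score taken from the DILIps (drug-induced liver injury prediction system) training data, here covering abnormal liver function test findings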
# Hepatotoxicity [2] = tested on: Hepatotoxicity; remark: listed apart in the source;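 on HepSE cholelithiasis: hepatic side effect score for cholelithiasis, drawn from the DILIps training data for predicting drug-induced liver injury; call rule not given here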;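 on HepSE elevated liver function tests: hepatic side effect score for raised liver function tests, as recorded in the DILIps training set used for predicting drug-induced liver injury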; on HepSE hepatic failure: call rule not given here;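 on HepSE hepatitis: Hepatitis-related hepatic side effect score taken from the training data of DILIps, a prediction system for drug-induced liver injury; call rule not given here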;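 on HepSE jaundice: Jaundice-related hepatic side-effect score drawn from the training data of the DILIps (drug-induced liver injury prediction system); call rule not given here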;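 on HepSE liver function tests abnormal: hepatic side effect score taken from the DILIps (drug-induced liver injury prediction system) training data, here covering abnormal liver function test findings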
# Hepatotoxicity [3] = tested on: Hepatotoxicity; remark: listed apart in the source;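 on HepSE cholelithiasis: hepatic side effect score for cholelithiasis, drawn from the DILIps training data for predicting drug-induced liver injury; call rule not given here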;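 on HepSE elevated liver function tests: hepatic side effect score for raised liver function tests, as recorded in the DILIps training set used for predicting drug-induced liver injury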; on HepSE hepatic failure: call rule not given here;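 on HepSE hepatitis: Hepatitis-related hepatic side effect score taken from the training data of DILIps, a prediction system for drug-induced liver injury; call rule not given here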;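 on HepSE jaundice: Jaundice-related hepatic side-effect score drawn from the training data of the DILIps (drug-induced liver injury prediction system); call rule not given here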;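 on HepSE liver function tests abnormal: hepatic side effect score taken from the DILIps (drug-induced liver injury prediction system) training data, here covering abnormal liver function test findings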
# Hepatotoxicity [4] = tested on: Hepatotoxicity; remark: listed apart in the source;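 on HepSE cholelithiasis: hepatic side effect score for cholelithiasis, drawn from the DILIps training data for predicting drug-induced liver injury; call rule not given here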;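 on HepSE elevated liver function tests: hepatic side effect score for raised liver function tests, as recorded in the DILIps training set used for predicting drug-induced liver injury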; on HepSE hepatic failure: call rule not given here;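 on HepSE hepatitis: Hepatitis-related hepatic side effect score taken from the training data of DILIps, a prediction system for drug-induced liver injury; call rule not given here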;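 on HepSE jaundice: Jaundice-related hepatic side-effect score drawn from the training data of the DILIps (drug-induced liver injury prediction system); call rule not given here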;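 on HepSE liver function tests abnormal: hepatic side effect score taken from the DILIps (drug-induced liver injury prediction system) training data, here covering abnormal liver function test findings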
# Hepatotoxicity [5] = tested on: Hepatotoxicity; remark: listed apart in the source; on HepSE hepatic failure: call rule not given here
# Hepatotoxicity [6] = tested on: Hepatotoxicity; remark: listed apart in the source; on HepSE hepatic failure: call rule not given here
# Hepatotoxicity [7] = tested on: Hepatotoxicity; remark: listed apart in the source
# Hepatotoxicity [8] = tested on: Hepatotoxicity; remark: listed apart in the source
# Hepatotoxicity [9] = tested on: Hepatotoxicity; remark: listed apart in the source
# Hepatotoxicity [10] = tested on: Hepatotoxicity; remark: listed apart in the source
# Hepatotoxicity [11] = tested on: Hepatotoxicity; remark: listed apart in the source
# Hepatotoxicity [12] = tested on: Hepatotoxicity; remark: listed apart in the source
# Hepatotoxicity [13] = tested on: Hepatotoxicity; remark: listed apart in the source
# Hepatotoxicity [14] = tested on: Hepatotoxicity; remark: listed apart in the source
SMILES,HepSE_elevated liver function tests (Hepatotoxicity [1]),HepSE_liver function tests abnormal (Hepatotoxicity [2]),HepSE_jaundice (Hepatotoxicity [3]),HepSE_cholelithiasis (Hepatotoxicity [4]),HepSE_hepatic failure (Hepatotoxicity [5]),HepSE_hepatitis (Hepatotoxicity [6]),HepSE_cirrhosis (Hepatotoxicity [7]),HepSE_hepatic necrosis (Hepatotoxicity [8]),HepSE_hepatomegaly (Hepatotoxicity [9]),HepSE_Combined Scores (Hepatotoxicity [10]),HepSE_bilirubinemia (Hepatotoxicity [11]),HepSE_liver fatty (Hepatotoxicity [12]),HepSE_cholecystitis (Hepatotoxicity [13]),HepSE_liver disease (Hepatotoxicity [14]),further results
NCC(=O)O [GLYCINE],,,,,,,,,,,,,,,HepSE_elevated liver function tests (Hepatotoxicity [1]; Liver): 0; HepSE_liver function tests abnormal (Hepatotoxicity [2]; Liver): 0; HepSE_jaundice (Hepatotoxicity [3]; Liver): 0; HepSE_cholelithiasis (Hepatotoxicity [4]; Liver): 0; HepSE_hepatic failure (Hepatotoxicity [5]; Liver): 0; HepSE_hepatitis (Hepatotoxicity [6]; Liver): 0; HepSE_cirrhosis (Hepatotoxicity [7]; Liver): 0; HepSE_hepatic necrosis (Hepatotoxicity [8]; Liver): 0; HepSE_hepatomegaly (Hepatotoxicity [9]; Liver): 0; HepSE_Combined Scores (Hepatotoxicity [10]; Liver): 0; HepSE_bilirubinemia (Hepatotoxicity [11]; Liver): 0; HepSE_liver fatty (Hepatotoxicity [12]; Liver): 0; HepSE_cholecystitis (Hepatotoxicity [13]; Liver): 0; HepSE_liver disease (Hepatotoxicity [14]; Liver): 0
COC(=O)C1=C(C)NC(C)=C(C(=O)OCCN(C)Cc2ccccc2)C1c1cccc([N+](=O)[O-])c1 (configuration not stated) [NICARDIPINE],0,0,0,0,0,0,0,0,0,0,0,0,0,0,
CCCc1nn(C)c2c(=O)[nH]c(-c3cc(S(=O)(=O)N4CCN(C)CC4)ccc3OCC)nc12,0,1,0,0,0,0,0,0,0,1,0,0,0,0,
Cc1ccc(N(CC2=NCCN2)c2cccc(O)c2)cc1 [PHENTOLAMINE],0,0,0,0,0,0,0,0,0,0,0,0,0,0,
O=C1c2c(O)ccc(O)c2C(=O)c2c(NCCNCCO)ccc(NCCNCCO)c21 [MITOXANTRONE],0,0,1,0,0,1,0,0,0,2,0,0,0,0,
CCN(CC)CCNC(=O)c1c(C)[nH]c(/C=C2\C(=O)Nc3ccc(F)cc32)c1C [SUNITINIB],0,0,1,0,1,0,0,0,0,2,0,0,0,0,
CC(CN(C)C)CN1c2ccccc2CCc2ccccc21 (configuration not stated) [TRIMIPRAMINE],0,0,1,0,0,0,0,0,0,1,0,0,0,0,
Cc1cccc(C)c1NC(=O)C1CCCCN1C (configuration not stated) [MEPIVACAINE],0,0,0,0,0,0,0,0,0,0,0,0,0,0,
Cn1c(=O)c2[nH]cnc2n(C)c1=O.O [THEOPHYLLINE],0,0,0,0,0,0,0,0,0,0,0,0,0,0,
CNC(=C[N+](=O)[O-])NCCSCc1ccc(CN(C)C)o1 [RANITIDINE],0,0,1,0,1,1,0,0,0,4,0,0,0,1,
N[C@@H](C(=O)N[C@@H]1C(=O)N2C(C(=O)O)=C(Cl)CS[C@H]12)c1ccccc1 [CEFACLOR ANHYDROUS],0,0,1,0,0,1,0,0,0,2,0,0,0,0,
CN1CCN2c3ncccc3Cc3ccccc3C2C1 (configuration not stated) [MIRTAZAPINE],0,1,0,0,0,0,1,0,0,3,0,0,1,0,
CNCCC=C1c2ccccc2CCc2ccccc21 [NORTRIPTYLINE],,,,,,,,,,,,,,,HepSE_elevated liver function tests (Hepatotoxicity [1]; Liver): 0; HepSE_liver function tests abnormal (Hepatotoxicity [2]; Liver): 0; HepSE_jaundice (Hepatotoxicity [3]; Liver): 1; HepSE_cholelithiasis (Hepatotoxicity [4]; Liver): 0; HepSE_hepatic failure (Hepatotoxicity [5]; Liver): 0; HepSE_hepatitis (Hepatotoxicity [6]; Liver): 1; HepSE_cirrhosis (Hepatotoxicity [7]; Liver): 0; HepSE_hepatic necrosis (Hepatotoxicity [8]; Liver): 1; HepSE_hepatomegaly (Hepatotoxicity [9]; Liver): 0; HepSE_Combined Scores (Hepatotoxicity [10]; Liver): 3; HepSE_bilirubinemia (Hepatotoxicity [11]; Liver): 0; HepSE_liver fatty (Hepatotoxicity [12]; Liver): 0; HepSE_cholecystitis (Hepatotoxicity [13]; Liver): 0; HepSE_liver disease (Hepatotoxicity [14]; Liver): 0
